BigSolDB 2.1

NC(N)=S
solubility (mole fraction)
Details	303.15 K	308.15 K	313.15 K	318.15 K	323.15 K	328.15 K	333.15 K	338.15 K	343.15 K
in acetonitrile	0.00752	0.00805	0.00864	0.00915	0.00972	0.0101	0.0108	0.011	0.0112
in benzene	0.00283	0.00313	0.0034	0.00372	0.00395	0.00436	0.00496	0.00564	0.0065
in chlorobenzene	0.00127	0.00144	0.00157	0.00174	0.00189	0.00211	0.0023	0.00256	0.00277
in ethanol	0.0283	0.0322	0.0354	0.0401	0.0465	0.0531	0.0592	0.0662	0.0751
in ethyl acetate	0.0199	0.021	0.0221	0.023	0.0244	0.0264	0.0286	0.0307	0.0327
in isopropanol	0.0258	0.0286	0.0325	0.0361	0.0408	0.0445	0.049	0.0534	0.0588
in m-xylene	0.0022	0.00249	0.00277	0.00311	0.00342	0.00375	0.00422	0.00485	0.00556
in methanol	0.0605	0.0654	0.0728	0.0804	0.0932	0.106	0.123	–	–
in n-butanol	0.0207	0.0225	0.0248	0.0273	0.0297	0.0332	0.0361	0.0396	–
in n-octanol	0.0211	0.0242	0.028	0.032	0.0354	0.0394	0.0445	0.0488	0.0526
in n-propanol	0.0242	0.0265	0.0292	0.0324	0.036	0.0398	0.0451	0.0499	0.0544
in toluene	0.0025	0.00289	0.00307	0.00336	0.00372	0.00405	0.00452	0.00525	0.0059
